Measured values: patent publication US20120201749A1, “NP-1 Antagonists and Their Therapeutic Use” (priority 2009, published 2012)

Molecular target: NP-1 (Homo sapiens, UniProt O14786)
Assay: Biotinylated-VEGF-A165 (bt-VEGF-A165) binding to NP-1
Conditions: for inhibition at 3 µM: 3 μM compound, read-out: Screen (% inhibition at 3 μM); for inhibition at 30 µM: 30 μM compound, read-out: Screen (% inhibition at 30 μM)
Procedure: Human prostate carcinoma DU145 cells were cultured in growth medium (RPMI 1640 containing 10% FBS and L-glutamine). DU145 cells were seeded at the density of 2×10^4 cells per well (96-well plates) in 0.1 ml growth medium and transfected with adenovirus vectors containing the full-length open-reading frame of human NP-1. The Ad.NP-1-transfected cells grew for 2 days prior to a binding assay.
Confluent Ad.NP-1-transfected cells in 96-well plates were washed twice with phosphate-buffered saline (PBS). The various concentrations of compounds diluted in binding medium (Dulbecco's modified Eagle's medium, 25 mM HEPES pH 7.3 containing 0.1% BSA) were added, followed by addition of 2 nM of bt-VEGF-A165. After 2 h of incubation at room temperature, the medium was aspirated and washed three times with PBS. The bound bt-VEGF-A165 to NP-1 was detected by streptavidin-horseradish peroxidase conjugates and the enzyme substrate, and measured using a Tecan Genios plate reader at A450 nm with a reference wavelength at A595 nm. Non-specific binding was determined in the presence of 100-fold excess unlabelled VEGF-A165.
The 96-well plates were pre-coated with NP1 protein at 3 μg/ml overnight at 4° C. On the following day, the plates were treated with blocking buffer (PBS containing 1% BSA) and washed three times with wash buffer (PBS containing 0.1% Tween-20). The various concentrations of compounds diluted in PBS containing 1% DMSO were added, followed by addition of 0.25 nM of bt-VEGF-A165. After 2 h of incubation at room temperature, the plates were washed three times with wash buffer. The bound bt-VEGF-A165 to NP-1 was detected by streptavidin-horseradish peroxidase conjugates and the enzyme substrate, and measured using a Tecan Genios plate reader at A450 nm with a reference wavelength at A595 nm. Nonspecific binding was determined in the absence of NP-1 coated wells of the plates.

NP-1, sequence (O14786 22-923): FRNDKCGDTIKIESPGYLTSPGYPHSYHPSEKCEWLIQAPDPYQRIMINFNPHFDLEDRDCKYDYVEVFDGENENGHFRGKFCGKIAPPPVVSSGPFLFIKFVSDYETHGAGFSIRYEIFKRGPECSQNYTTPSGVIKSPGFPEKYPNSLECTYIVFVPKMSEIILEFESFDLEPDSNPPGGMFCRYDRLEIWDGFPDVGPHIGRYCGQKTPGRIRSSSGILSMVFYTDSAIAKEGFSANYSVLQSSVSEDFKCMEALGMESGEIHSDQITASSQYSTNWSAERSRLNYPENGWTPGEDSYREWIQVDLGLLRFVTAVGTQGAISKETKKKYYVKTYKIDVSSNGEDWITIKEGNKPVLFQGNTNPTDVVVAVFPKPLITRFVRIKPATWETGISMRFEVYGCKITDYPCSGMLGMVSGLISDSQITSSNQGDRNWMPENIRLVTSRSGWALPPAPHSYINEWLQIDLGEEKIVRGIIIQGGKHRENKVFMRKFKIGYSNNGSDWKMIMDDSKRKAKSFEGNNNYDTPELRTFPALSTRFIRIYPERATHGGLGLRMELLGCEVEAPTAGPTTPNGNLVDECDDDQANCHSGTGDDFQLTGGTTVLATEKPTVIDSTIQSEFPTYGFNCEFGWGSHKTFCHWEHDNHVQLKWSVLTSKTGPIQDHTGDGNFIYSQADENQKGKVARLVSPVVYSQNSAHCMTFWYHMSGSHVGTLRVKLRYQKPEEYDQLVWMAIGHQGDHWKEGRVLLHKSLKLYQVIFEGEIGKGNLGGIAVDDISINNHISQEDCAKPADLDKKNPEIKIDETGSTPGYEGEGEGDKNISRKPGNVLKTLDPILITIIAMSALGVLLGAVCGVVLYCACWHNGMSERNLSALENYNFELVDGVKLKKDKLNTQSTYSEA

SMILES: N=C(N)NCCC[C@H](NC(=O)c1sccc1NS(=O)(=O)c1cc(-c2cccc(CN3CCN(Cc4ccccn4)CC3)c2)cc2c1OCC2)C(=O)O [Compound 29, (S)-5-Guanidino-2-[(3-{5-[3-(4-pyridin-2-ylmethyl-piperazin-1-ylmethyl)-phenyl]-2,3-dihydro-benzofuran-7-sulfonylamino}-thiophene-2-carbonyl)-amino]-pentanoic acid]
- IC50: 686 nM
- inhibition at 3 µM: 79%
- inhibition at 30 µM: 100%

SMILES: N=C(N)NCCC[C@H](NC(=O)c1sccc1NS(=O)(=O)c1cc(-c2ccccc2CNCc2cn[nH]c2)cc2c1OCC2)C(=O)O [Compound 54, (S)-5-Guanidino-2-({3-[5-(2-{[(1H-pyrazol-4-ylmethyl)-amino]-methyl}-phenyl)-2,3-dihydro-benzofuran-7-sulfonylamino]-thiophene-2-carbonyl}-amino)-pentanoic acid]
- inhibition at 3 µM: 70%

SMILES: N=C(N)NCCC[C@H](NC(=O)c1sccc1NS(=O)(=O)c1cccc(NCc2csc(N3CCN(c4ccccn4)CC3)n2)c1)C(=O)O [Compound 63, (S)-5-guanidino-2-{[3-(3-{[2-(4-pyridin-2-yl-piperazin-1-yl)-thiazol-4-ylmethyl]-amino}-benzenesulfonylamino)-thiophene-2-carbonyl]-amino}-pentanoic acid]
- inhibition at 3 µM: 49%
- inhibition at 30 µM: 83%

SMILES: N=C(N)NCCC[C@H](NC(=O)c1sccc1NS(=O)(=O)c1cc(-c2ccccc2CN2CCC(CC(=O)O)CC2)cc2c1OCC2)C(=O)O [Compound 2, (S)-2-[(3-{5-[2-(4-Carboxymethyl-piperidin-1-ylmethyl)-phenyl]-2,3-dihydro-benzofuran-7-sulfonylamino}-thiophene-2-carbonyl)-amino]-5-guanidino-pentanoic acid]
- inhibition at 3 µM: 96%

SMILES: N=C(N)NCCC[C@H](NC(=O)c1sccc1NS(=O)(=O)c1cccc(NCc2csc(N3CCC(N)CC3)n2)c1)C(=O)O [Compound 64, (S)-5-guanidino-2-{[3-(3-{[2-(4-amino-piperidin-1-yl)-thiazol-4-ylmethyl]-amino}-benzenesulfonylamino)-thiophene-2-carbonyl]-amino}-pentanoic acid]
- inhibition at 3 µM: 72%
- inhibition at 30 µM: 92%

SMILES: N=C(N)NCCC[C@H](NC(=O)c1sccc1NS(=O)(=O)c1cccc(NCc2csc(N3CCN(c4ncccn4)CC3)n2)c1)C(=O)O [Compound 66, (S)-5-guanidino-2-{[3-(3-{[2-(4-pyrimidin-2-yl-piperazin-1-yl)-thiazol-4-ylmethyl]-amino}-benzenesulfonylamino)-thiophene-2-carbonyl]-amino}-pentanoic acid]
- inhibition at 3 µM: 71%
- inhibition at 30 µM: 93%

SMILES: Cc1ccc(NCCCNCc2cccc(-c3cc4c(c(S(=O)(=O)Nc5ccsc5C(=O)N[C@@H](CCCNC(=N)N)C(=O)O)c3)OCC4)c2)nc1 [Compound 44, (S)-5-Guanidino-2-({3-[5-(3-{[3-(5-methyl-pyridin-2-ylamino)-propylamino]-methyl}-phenyl)-2,3-dihydro-benzofuran-7-sulfonylamino]-thiophene-2-carbonyl}-amino)-pentanoic acid]
- inhibition at 3 µM: 78%

SMILES: N=C(N)NCCC[C@H](NC(=O)c1sccc1NS(=O)(=O)c1cc(-c2cccc(CNCc3ccc(O)nc3)c2)cc2c1OCC2)C(=O)O [Compound 43, (S)-5-Guanidino-2-({3-[5-(3-{[(6-hydroxy-pyridin-3-ylmethyl)-amino]-methyl}-phenyl)-2,3-dihydro-benzofuran-7-sulfonylamino]-thiophene-2-carbonyl}-amino)-pentanoic acid]
- inhibition at 3 µM: 82%

SMILES: N=C(N)NCCC[C@H](NC(=O)c1sccc1NS(=O)(=O)c1cc(-c2ccccc2CNCc2cccnc2)cc2c1OCC2)C(=O)O [Compound 9, (S)-5-Guanidino-2-({3-[5-(2-{[(pyridin-3-ylmethyl)-amino]-methyl}-phenyl)-2,3-dihydro-benzofuran-7-sulfonylamino]-thiophene-2-carbonyl}-amino)-pentanoic acid]
- IC50: 3000 nM
- inhibition at 30 µM: 97%
